The values below come from ChEMBL document CHEMBL4619778, “Oligopeptides as Neuropeptide Y Y4 Receptor Ligands: Identification of a High-Affinity Tetrapeptide Agonist and a Hexapeptide Antagonist” (J Med Chem, 2020).

Square brackets hold non-standard residues; d marks the D form. Peptide text beside a SMILES is read from it. ξ: configuration not given here. ξOrn = NCCCC(N)C(=O)O

Experiment [1] has as its target T1, Neuropeptide Y receptor type 4 (Homo sapiens, UniProt P50391). The experiment can be described thus: Antagonist activity at human Y4 receptor expressed in CHO cells co-expressing Gqi5-mtAEQ assessed as inhibition of hPP-induced intracellular calcium mobilization preincubated for 15 mins followed by hPP addition and measured for 43 secs in presence of coelenterazine by aequorin-reporter gene based luminescence assay. Format: functional, cell-based.

Experiment [2] addresses T1, Neuropeptide Y receptor type 4. The experiment is described as follows: Displacement of [3H]UR-KK200 from human Y4 receptor expressed in CHO cells co-expressing Gqi5-mtAEQ measured after 90 mins by scintillation counting analysis. Format: cell-based.
The target is the same in experiment [3]. The experiment can be described thus: Antagonist activity at human Y4R expressed in HEK293T cells co-expressing ARRB2 assessed as inhibition of hPP-induced beta-arrestin2 recruitment preincubated for 20 mins followed by hPP addition and measured for 40 mins by D-luciferin based luminescence assay. The format is cell-based. The note with it: HEK-293T.
The target is the same in experiment [4]. The experiment is described as follows: Antagonist activity at human Y4R expressed in HEK293T cells co-expressing ARRB1 assessed as inhibition of hPP-induced beta-arrestin1 recruitment preincubated for 20 mins followed by hPP addition and measured for 40 mins by D-luciferin based luminescence assay. The note with it: HEK-293T. The format is cell-based.
For experiment [5], the species on record is Homo sapiens. The experiment is described as follows: Selectivity ratio of Ki for displacement of [3H]propionyl-pNPY from human Y2 receptor expressed in CHO cells to Ki for displacement of [3H]UR-KK200 from human Y4 receptor expressed in CHO cells co-expressing Gqi5-mtAEQ. The format is cell-based.
Experiment [6] addresses T2, Neuropeptide Y receptor type 1 (Homo sapiens, UniProt P25929).
T2 sequence (P25929 whole entry): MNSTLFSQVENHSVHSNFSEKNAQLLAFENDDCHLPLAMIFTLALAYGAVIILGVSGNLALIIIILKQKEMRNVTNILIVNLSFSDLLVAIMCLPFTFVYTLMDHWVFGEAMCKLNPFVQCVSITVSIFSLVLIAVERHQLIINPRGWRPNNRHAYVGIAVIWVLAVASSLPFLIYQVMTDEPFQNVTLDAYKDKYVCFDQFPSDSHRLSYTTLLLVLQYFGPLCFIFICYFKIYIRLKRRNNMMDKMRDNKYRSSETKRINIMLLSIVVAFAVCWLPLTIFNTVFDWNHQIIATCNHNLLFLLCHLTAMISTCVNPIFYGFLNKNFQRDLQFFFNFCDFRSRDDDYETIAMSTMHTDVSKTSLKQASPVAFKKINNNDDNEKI
The experiment is described as follows: Displacement of [3H]UR-MK299 from Y1 receptor in human SK-N-MC cells. The format is cell-based.

Experiment [7] concerns the target T3, Neuropeptide Y receptor type 2 (Homo sapiens, UniProt P49146).
T3 sequence (P49146 whole entry): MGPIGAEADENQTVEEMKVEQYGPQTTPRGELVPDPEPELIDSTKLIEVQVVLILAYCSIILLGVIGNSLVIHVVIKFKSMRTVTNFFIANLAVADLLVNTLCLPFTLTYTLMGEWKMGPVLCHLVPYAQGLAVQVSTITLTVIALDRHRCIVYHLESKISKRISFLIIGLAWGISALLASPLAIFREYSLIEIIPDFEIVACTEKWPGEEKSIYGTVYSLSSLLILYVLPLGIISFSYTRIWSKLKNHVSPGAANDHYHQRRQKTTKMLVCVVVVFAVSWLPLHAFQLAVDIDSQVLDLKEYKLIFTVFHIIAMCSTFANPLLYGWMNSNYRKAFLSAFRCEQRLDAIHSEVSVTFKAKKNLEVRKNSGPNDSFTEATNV
The experiment is described as follows: Displacement of [3H]propionyl-pNPY from human Y2 receptor expressed in CHO cells measured after 2 hrs by microbeta liquid scintillation counting analysis. The format is cell-based.

The target of experiment [8] is T4, Neuropeptide Y receptor type 5 (Homo sapiens, UniProt Q15761).
T4 sequence (Q15761 whole entry): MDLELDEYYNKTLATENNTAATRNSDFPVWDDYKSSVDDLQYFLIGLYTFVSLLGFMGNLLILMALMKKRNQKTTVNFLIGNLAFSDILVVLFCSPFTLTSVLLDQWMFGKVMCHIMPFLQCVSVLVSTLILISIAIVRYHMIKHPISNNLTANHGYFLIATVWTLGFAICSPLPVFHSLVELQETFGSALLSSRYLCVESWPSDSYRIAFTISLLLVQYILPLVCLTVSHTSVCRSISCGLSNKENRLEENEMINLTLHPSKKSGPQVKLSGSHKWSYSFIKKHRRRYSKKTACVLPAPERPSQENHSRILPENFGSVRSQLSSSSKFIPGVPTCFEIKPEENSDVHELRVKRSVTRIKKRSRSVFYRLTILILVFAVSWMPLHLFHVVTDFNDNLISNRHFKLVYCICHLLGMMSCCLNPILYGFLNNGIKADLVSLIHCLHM
The experiment is described as follows: Displacement of [3H]propionyl-pNPY from human Y5 receptor expressed in human HEC1B cells. Format: cell-based.

The species named for experiment [9] is Homo sapiens. The experiment is described as follows: Selectivity ratio of Ki for displacement of [3H]UR-MK299 from Y1 receptor in human SK-N-MC cells to Ki for displacement of [3H]UR-KK200 from human Y4 receptor expressed in CHO cells co-expressing Gqi5-mtAEQ. Format: cell-based.
For experiment [10], the species on record is Homo sapiens. The experiment can be described thus: Selectivity ratio of Ki for displacement of [3H]propionyl-pNPY from human Y5 receptor expressed in human HEC1B cells to Ki for displacement of [3H]UR-KK200 from human Y4 receptor expressed in CHO cells co-expressing Gqi5-mtAEQ. The format is cell-based.
Experiment [11] has as its target T1, Neuropeptide Y receptor type 4. The experiment can be described thus: Antagonist activity at human Y4 receptor expressed in CHO cells co-expressing Gqi5-mtAEQ assessed as inhibition of hPP-induced intracellular calcium mobilization at 10 uM preincubated for 15 mins followed by hPP addition and measured for 43 secs in presence of coelenterazine by aequorin-reporter gene based luminescence assay. Format: functional, cell-based.

For experiment [12] the target is unchanged. The experiment can be described thus: Antagonist activity at human Y4 receptor expressed in CHO cells co-expressing Gqi5-mtAEQ assessed as inhibition of hPP-induced intracellular calcium mobilization by measuring rightward shifts of hPP concentration-response curves at 10 uM preincubated for 15 mins followed by hPP addition and …. Format: functional, cell-based.

Experiment [13] has the same target. The experiment is described as follows: Antagonist activity at human Y4R expressed in HEK293T cells co-expressing ARRB1 assessed as inhibition of hPP-induced beta-arrestin1 recruitment at 10 uM preincubated for 20 mins followed by hPP addition and measured for 40 mins by D-luciferin based luminescence assay. The note with it: HEK-293T. The format is cell-based.

Experiment [14] shares this target. The experiment is described as follows: Antagonist activity at human Y4R expressed in HEK293T cells co-expressing ARRB1 assessed as inhibition of hPP-induced beta-arrestin1 recruitment by measuring rightward shifts of hPP concentration-response curves at 10 uM preincubated for 20 mins followed by hPP addition and measured for 40 mins by D-luciferin based luminescence assay relative to hPP. Format: cell-based. The note with it: HEK-293T.

T1 sequence (P50391 whole entry): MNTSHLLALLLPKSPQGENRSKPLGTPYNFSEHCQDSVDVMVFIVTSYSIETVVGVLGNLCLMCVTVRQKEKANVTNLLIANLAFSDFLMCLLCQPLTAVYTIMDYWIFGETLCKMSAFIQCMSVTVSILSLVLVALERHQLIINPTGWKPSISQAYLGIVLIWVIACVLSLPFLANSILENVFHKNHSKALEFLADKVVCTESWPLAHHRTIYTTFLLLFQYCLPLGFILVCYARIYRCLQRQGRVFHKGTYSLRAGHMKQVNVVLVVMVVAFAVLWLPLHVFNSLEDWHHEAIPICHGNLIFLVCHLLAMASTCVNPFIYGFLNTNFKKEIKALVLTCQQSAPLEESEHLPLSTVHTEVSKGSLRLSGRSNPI

On to `CC(=O)N[C@@H](CCCNC(=N)N)C(=O)NC(CCCN)C(=O)N[C@@H](Cc1ccc(O)cc1)C(=O)N[C@@H](CCCNC(=N)N)C(=O)N[C@@H](Cc1c[nH]c2ccccc12)C(=O)N[C@@H](CCCNC(=N)N)C(=O)N[C@@H](Cc1ccc(O)cc1)C(N)=O` (stereo not given in full) (Ac-R[ξOrn]YRWRY-NH2), for which the values for the pKb in experiment [1], in experiment [3] and in experiment [4] were 6.91, 5.87 and 6.22, respectively. In experiment [2] (read-out: Ki), the Ki came to 0.16 µM.
With Ac-RGYRWRW-NH2, the values for the pKb in [1], in experiment [3] and in experiment [4] were 6.46, 5.8 and 6.1, respectively. Moreover, the Ki in experiment [2] (read-out: Ki) was 0.25 µM; in experiment [2] (read-out: pKi (converted)), 0.24 µM.
In the case of Ac-RGYRWRY-NH2, the Ratio Ki in experiment [5] is more than 340; in [9] it was more than 100; in [10] it was more than 100. Besides, the Ki was more than 3 µM in [6] (read-out: Ki); more than 3.16 µM in experiment [6] (read-out: pKi (converted)); more than 10 µM in experiment [7] (cho, read-out: Ki); more than 10 µM in experiment [7] (read-out: pKi (converted)); 0.029 µM in [2] (read-out: Ki); more than 3 µM in experiment [8] (read-out: Ki). Besides, the Ki in experiment [8] (read-out: pKi (converted)) was more than 3.16 µM. Moreover, the pKb in experiment [1] stood at 7.57; in [3] it was 7.01; in [4] it was 6.96.
As for Ac-RYRWRY-NH2, the pKb worked out at 7.22 in experiment [1], 6.85 in experiment [3] and 7.02 in experiment [4]. For the same compound, the Ki in experiment [2] (read-out: Ki) was 0.097 µM; in experiment [2] (read-out: pKi (converted)) it was 0.0891 µM.
For H-RYRWRY-NH2, the Ratio Ki in experiment [5] is more than 110; in experiment [9], more than 110; in experiment [10] it was more than 360. In addition, the Ki in experiment [6] (read-out: Ki) is more than 3 µM; in experiment [6] (read-out: pKi (converted)), more than 3.16 µM; in experiment [7] (read-out: Ki), more than 3 µM; in experiment [7] (read-out: pKi (converted)), more than 3.16 µM; in experiment [2] (read-out: Ki), 0.028 µM; in experiment [2] (read-out: pKi (converted)) it was 0.0269 µM. In addition, the Ki in [8] (read-out: Ki) and in experiment [8] (read-out: pKi (converted)) was more than 10 µM each time. Also, the pKb was 7.05 in [11]; 7.32 in [1]; 6.63 in experiment [13]; 6.87 in [3]; 7.14 in [4]. Also, the fold change (FC) in experiment [12] and in [14] was 2 in each case.
